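Exposure lasted 48 hours, with cells grown in 96-well plates and compounds tested at five concentrations. GI50 is the concentration that inhibits growth by half.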 Calls of active or inactive are those of the source. Cut-off read from the data, not from the text of the source: active = GI50 up to about 1.1 µM and inactive = higher.
What was measured:
Assay in all cases: inhibition of tumour cell growth, NCI panel, 48 h
[1] = system: KM12
[2] = system: SNB-19
[3] = system: IGROV-1
[4] = system: UO-31
[5] = system: SF-295
[6] = system: RPMI-8226
[7] = system: UACC-62
[8] = system: CAKI-1
[9] = system: MDA-MB-435
[10] = system: SK-MEL-2
[11] = system: SK-OV-3
[12] = system: TK-10
[13] = system: HCC 2998
[14] = system: HCT-116
[15] = system: HOP-62
[16] = system: NCI-H23
[17] = system: T47D
[18] = system: NCI/ADR-RES
[19] = system: MOLT-4
[20] = system: SF-539

| SMILES | GI50 [1] | GI50 [2] | GI50 [3] | GI50 [4] | GI50 [5] | GI50 [6] | GI50 [7] | GI50 [8] | GI50 [9] | GI50 [10] | GI50 [11] | GI50 [12] | GI50 [13] | GI50 [14] | GI50 [15] | GI50 [16] | GI50 [17] | GI50 [18] | GI50 [19] | GI50 [20] |
| --- | --- | --- | --- | --- | --- | --- | --- | --- | --- | --- | --- | --- | --- | --- | --- | --- | --- | --- | --- | --- |
| O=C(O)CCSC1=NCCN1 | > 100 µM (inactive) | > 100 µM (inactive) | > 100 µM (inactive) | > 100 µM (inactive) | > 100 µM (inactive) | > 100 µM (inactive) | > 100 µM (inactive) | > 100 µM (inactive) | > 100 µM (inactive) | > 100 µM (inactive) | > 100 µM (inactive) | > 100 µM (inactive) | > 100 µM (inactive) | > 100 µM (inactive) | > 100 µM (inactive) | > 100 µM (inactive) | > 100 µM (inactive) | > 100 µM (inactive) |  |  |
| C/C(=N\NC(=O)c1ccccc1O)c1cccc(/C(C)=N/NC(=O)c2ccccc2O)n1 | 6.5 µM (inactive) |  |  |  | 12.5 µM (inactive) | 14.7 µM (inactive) | 2.58 µM (inactive) |  | 41.8 µM (inactive) | 10.2 µM (inactive) | 4.12 µM (inactive) | 18.6 µM (inactive) | 1.02 µM (active) |  | 5.05 µM (inactive) |  | 4.24 µM (inactive) | 27.6 µM (inactive) | 0.955 µM (active) |  |
| CCOC(=O)c1cc(C2CCN(Cc3ccccc3)C2=O)c(C(=O)/C=C(/C)N)[nH]1 (configuration not stated) | > 100 µM (inactive) | > 100 µM (inactive) | 67.5 µM (inactive) | 91.2 µM (inactive) | 46.3 µM (inactive) | > 100 µM (inactive) | > 100 µM (inactive) | > 100 µM (inactive) | > 100 µM (inactive) | > 100 µM (inactive) | 70.5 µM (inactive) | > 100 µM (inactive) | > 100 µM (inactive) | 90.6 µM (inactive) | 30.5 µM (inactive) | > 100 µM (inactive) | > 100 µM (inactive) | 72.1 µM (inactive) | > 100 µM (inactive) |  |
| O=C1Nc2ccc(S(=O)(=O)NCCO)cc2/C1=C1/Nc2ccccc2C1=O | 0.385 µM (active) | 8.81 µM (inactive) | 1.04 µM (active) | 52.5 µM (inactive) | 42 µM (inactive) | 92.5 µM (inactive) | 7.18 µM (inactive) | > 100 µM (inactive) | > 100 µM (inactive) | 4.16 µM (inactive) | 5.42 µM (inactive) | 18 µM (inactive) | 53 µM (inactive) | 3.13 µM (inactive) | 16.2 µM (inactive) | 28.4 µM (inactive) | 4.56 µM (inactive) | > 100 µM (inactive) | 7.06 µM (inactive) |  |
| COC(=O)C1Cc2c([nH]c3ccccc23)-c2[nH]c3ccccc3c2CC(NC(C)=O)C(=O)NCC(=O)NCC(=O)N1 (configuration not stated) | > 100 µM (inactive) | > 100 µM (inactive) | > 100 µM (inactive) | > 100 µM (inactive) | > 100 µM (inactive) | > 100 µM (inactive) | > 100 µM (inactive) | > 100 µM (inactive) | > 100 µM (inactive) | > 100 µM (inactive) | > 100 µM (inactive) | > 100 µM (inactive) |  | > 100 µM (inactive) | > 100 µM (inactive) | > 100 µM (inactive) | > 100 µM (inactive) | > 100 µM (inactive) | > 100 µM (inactive) | > 100 µM (inactive) |
| O=C1C(c2c(O)[nH]c3ccccc23)=Nc2ccc(Br)cc21 | 17.1 µM (inactive) | 22 µM (inactive) | 3.37 µM (inactive) | 24.6 µM (inactive) | 22.4 µM (inactive) | 75.7 µM (inactive) | 17.6 µM (inactive) | 56.2 µM (inactive) | 61.8 µM (inactive) | 29.8 µM (inactive) | 18.4 µM (inactive) | 23 µM (inactive) | 25.6 µM (inactive) | 24.3 µM (inactive) | 21.3 µM (inactive) | 51.8 µM (inactive) | 21.8 µM (inactive) | 37.4 µM (inactive) | 18.9 µM (inactive) |  |
